The results in this text go back to BindingDB's records for patent US20230399327 (Adlai Nortye Biopharma Co., 2023).

Mitogen-activated protein kinase kinase kinase kinase 1, sequence (Q92918 whole entry): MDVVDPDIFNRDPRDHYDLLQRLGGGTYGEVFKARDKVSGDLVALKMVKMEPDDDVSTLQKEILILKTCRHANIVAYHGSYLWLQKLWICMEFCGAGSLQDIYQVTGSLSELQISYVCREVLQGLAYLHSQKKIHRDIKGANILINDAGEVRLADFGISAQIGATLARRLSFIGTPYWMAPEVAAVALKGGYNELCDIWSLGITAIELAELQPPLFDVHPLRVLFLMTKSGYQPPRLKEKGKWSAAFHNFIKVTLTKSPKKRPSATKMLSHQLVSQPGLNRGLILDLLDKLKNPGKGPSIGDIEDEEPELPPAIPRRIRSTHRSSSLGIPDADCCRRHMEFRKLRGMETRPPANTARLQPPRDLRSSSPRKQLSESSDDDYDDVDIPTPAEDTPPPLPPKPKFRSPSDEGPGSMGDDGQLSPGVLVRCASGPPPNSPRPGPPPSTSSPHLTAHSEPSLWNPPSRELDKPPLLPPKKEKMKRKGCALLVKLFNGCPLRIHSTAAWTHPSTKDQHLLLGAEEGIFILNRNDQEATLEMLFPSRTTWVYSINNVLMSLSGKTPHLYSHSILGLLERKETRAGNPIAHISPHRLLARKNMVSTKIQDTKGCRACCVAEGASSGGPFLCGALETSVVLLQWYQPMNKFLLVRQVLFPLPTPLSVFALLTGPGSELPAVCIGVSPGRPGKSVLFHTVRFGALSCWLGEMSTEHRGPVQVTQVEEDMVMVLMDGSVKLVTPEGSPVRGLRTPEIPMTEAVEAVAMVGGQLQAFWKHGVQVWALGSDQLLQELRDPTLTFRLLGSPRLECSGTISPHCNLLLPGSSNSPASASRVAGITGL

The assay deals with Mitogen-activated protein kinase kinase kinase kinase 1 (Homo sapiens, UniProt Q92918). Kind of assay: Detection of Compound's Ability to Inhibit HPK1 Kinase Activity Assay. How it is done:
The specific operation is as follows: configure the enzymatic reaction system buffer (10 mM MOPS, pH 7.2, 5 mM β-glycerol-phosphate, 10 mM MgCl2, 0.8 mM EDTA, 2 mM EGTA, 0.1 mM DTT); the test compound (1 mM the compound stock solution in DMSO) was diluted with buffer to the highest concentration of 60 uM (containing 6% DMSO), and the compound with a concentration of 60 μM was initially diluted 5 times with a buffer containing 6% DMSO for a total of 8 points of gradient concentration; then dilute HPK1 kinase to 30 nM in buffer. Add 2 μl of HPK1 kinase diluent to each well of a Greiner 384-well microplate (Cat. No. 784075), and add 2 μl of buffer to the control well; add 1 μl of the diluted compound to the reaction well after brief centrifugation, and add 1 μl buffer solution containing 6% DMSO to the control well; after short centrifugation, place in a 25° C. constant temperature incubator (Shanghai Yiheng Scientific Instrument Co., Ltd., Cat. No.: LRH-150) and incubate for 20 minutes. Add 3 μl of reaction substrate (10 μM MBP and 20 μM ATP dissolved in distilled water) to each well, briefly centrifuge and incubate in a constant temperature incubator at 25° C. for 60 min, and use ADP-Glo Kinase Assay Kit to detect the enzymatic reaction activity, ADP-Glo Kinase Assay Kit detection is carried out according to the operating instructions of the kit. Data are described using the half maximal inhibitory
As to `COc1nc2c(cc1Nc1ncc3cccc(-c4cnn5ccccc45)c3n1)CN(C)CC2` [US20230399327, Example 2], the IC50 (commonly the point on the concentration scale where inhibition reaches its midpoint) was under 0.1 nM.
The value for `COc1nc2c(cc1Nc1ncc3ccnc(N4CCC[C@H]4CO)c3n1)CN(C)CC2` [US20230399327, Example 101] was under 0.1 nM.
For `COc1nc2c(cc1Nc1ncc3cccc(-c4ccccc4)c3n1)CN(C)CC2` [US20230399327, Example 1], the IC50 was under 0.1 nM.
For `CN1CCc2[nH]c(=O)c(Nc3ncc4ccnc(NCC(C)(C)CO)c4n3)cc2C1` [US20230399327, Example 70], the IC50 is 0.29 nM.
The molecule `CCOc1nc2c(cc1Nc1ncc3ccnc(N[C@H](CO)C(C)C)c3n1)CN(C)CC2` [US20230399327, Example 89] displayed a half-inhibitory concentration (IC50) of under 0.1 nM.
For `CN1CCc2[nH]c(=O)c(Nc3ncc4ccnc(NCC5(C)CC5)c4n3)cc2C1` [US20230399327, Example 77], the IC50 is under 0.1 nM.
On to `CCOc1nc2c(cc1Nc1ncc3ccnc(N[C@@H]4CCC[C@H]4O)c3n1)CN(C)CC2` [US20230399327, Example 95], for which the IC50 was 18.1 nM.
Turning to `COc1nc2c(cc1Nc1ncc3ccnc(NCC(C)(C)O)c3n1)CN(C)CC2` [US20230399327, Example 111], the 50% inhibitory concentration (IC50) is under 0.1 nM.
Molecule `CC[C@H](CO)Nc1nccc2cnc(Nc3cc4c(nc3OC)CCN(C)C4)nc12` [US20230399327, Example 110] displayed a half-maximal inhibitory concentration (IC50) of under 0.1 nM.
Take `COc1nc2c(cc1Nc1ncc3ccnc(NC(C)(C)CO)c3n1)CN(C)CC2` [US20230399327, Example 109]: the IC50 was under 0.1 nM.
Under `CCOc1nc2c(cc1Nc1ncc3ccnc(N4CCC[C@H]4CO)c3n1)CN(C)CC2` [US20230399327, Example 106] stands 15.4 nM; under `COc1nc2c(cc1Nc1ncc3ccnc(N[C@H](CO)C(C)C)c3n1)CN(C)CC2` [US20230399327, Example 91], 21.5 nM; under `CCOc1nc2c(cc1Nc1ncc3ccnc(N[C@H]4CC[C@@H](O)C4)c3n1)CN(C)CC2` [US20230399327, Example 98], 0.44 nM.
The molecule `CN1CCc2[nH]c(=O)c(Nc3ncc4ccnc(N5CCCCCC5)c4n3)cc2C1` [US20230399327, Example 73] had an IC50 of 0.41 nM. This IC50 and that of the molecule before are within 1.5-fold of each other.
The value for `COc1nc2c(cc1Nc1ncc3ccnc(N4CC(F)(F)C[C@H]4CO)c3n1)CN(C)CC2` [US20230399327, Example 108] was under 0.1 nM; that for `CN1CCc2[nH]c(=O)c(Nc3ncc4ccnc(N5CCSCC5)c4n3)cc2C1` [US20230399327, Example 72] was 21.2 nM.
`CN1CCc2c(cc(Nc3ncc4ccnc(N5CCC(F)(F)CC5)c4n3)c(=O)n2C)C1` [US20230399327, Example 79] had an IC50 of under 0.1 nM.
The molecule `COc1cc2c(cc1Nc1ncc3ccnc(N[C@@H](CO)C(C)C)c3n1)CN(C)CC2` [US20230399327, Example 112] displayed an IC50 of under 0.1 nM.
On to `CN1CCc2c(cc(Nc3ncc4ccnc(N5CCC(F)(F)C5)c4n3)c(=O)n2C)C1` [US20230399327, Example 85], for which half-maximal inhibition (IC50) was put at 25.3 nM.
Molecule `COc1nc2c(cc1Nc1ncc3ccnc(C4=CCOCC4)c3n1)CN(C)CC2` [US20230399327, Example 26] yielded an IC50 of 8.31 nM.
In turn, `C[C@@H]1CCCCN1c1nccc2cnc(Nc3cc4c([nH]c3=O)CCN(C)C4)nc12` [US20230399327, Example 76] came in with an IC50 of under 0.1 nM.
